These results are taken from paper PMC13388172 (Frontiers in Pharmacology, 2026).

The structures appear in SMILES notation.

This series in a line: Therapeutic drug monitoring of serum ETI components and metabolites (UPLC-MS/MS), hourly for 9 hours after ingestion. Type of series: in vivo. The following applies: female, human, oral, full dose ETI, one pwCF, sampled hourly for 9 hours after ingestion, read-out: Area under the curve (AUC), serum.

Procedure: The analytes of interest were assayed using an ultra-performance liquid chromatography tandem mass spectrometry method. In the concentration range from 0.01 to 20.0 mg/L, calibration curves were linear with a correlation coefficient >0.999 for all analytes.
Repeat TDM was conducted after a month on this reduced dosing strategy as this was felt likely to provide adequate time for steady-state concentrations to be achieved.

Broadly, the AUC is concentration integrated over time. As for `CC(C)(CO)c1cc2cc(NC(=O)C3(c4ccc5c(c4)OC(F)(F)O5)CC3)c(F)cc2n1C[C@@H](O)CO` [tezacaftor], the AUC stood at 92600 ng·h/mL.
